Experimental data: patent publication US6025365A, “Chelerythrine and radiation combined tumor therapy” (Arch Development Corp., priority 1997, dated 2000)
pIC50: −log10 of the molar value.

Tests used:
[1] = system: SQ20-B cells; experiment: Clonogenic survival / colony formation assay; assay type: cell-based, human; details: 20 μM C2-ceramide 30 minutes prior to x-ray
Protocol: FIG. 2. Chelerythrine chloride enhanced IR-mediated cell killing through divisional death. Clonogenic survival was measured following exposure to increasing concentrations of chelerythrine and ionizing radiation. Cells were plated at cell numbers between about 500 cells/plate and about 2000 cells/plate and treated with 0 μM, 0.5 μM, or 1.0 μM chelerythrine chloride for 30 minutes prior to irradiation. After 2 weeks the colonies were scored for survival if they were composed of more than 50 cells. Results represent the mean of three individual experiments with duplicate or triplicate determinants. Error bars represent +/- the standard error of the means (SEM).
FIG. 5C. […] Closed circles represent radiation alone; closed squares represenet addition of 20 μM C2-Ceramide 30 minutes prior to x-ray.
Exponentially growing SQ20B cultures were trypsinized using 0.05% trypsin+0.02% EDTA. Cells (100 to 50,000) were plated in 100 mm tissue culture dishes. Chelerythrine or C2-ceramide was added 4 hours after plating and irradiated for 30 minutes after the addition of chelerythrine or C2-ceramide. The cells were irradiated using a GE Maxitron 250 x-ray generator operating at 250 kV and 26 mA with a dose rate of 114 cGy/min. After 12 days the cells were fixed and stained with crystal violet following standard procedures (Chmura et al., 1996a; 1996b). Colonies of >50 cells were scored as survivors.
Clonogenic survival was measured following increasing concentrations of chelerythrine chloride alone (0.5-1.5 μM), IR alone (1-9 Gy), or the combined treatment of cells with chelerythrine and IR. […] At a concentration of 500 nM, chelerythrine decreased cell survival to about 80% of untreated control cells (about 20% cell death). The combined treatment of cells with 500 nM of chelerythrine 30 minutes prior to treatment with 3 Gy of radiation decreased cell survival to about 30% of untreated cells (about 70% cell death). […] Cell shrinkage and nuclear condensation, characteristic of apoptosis, were not observed at these concentrations of chelerythrine and IR.

[2] = system: WEHI-231 OE cells; experiment: Radiation mediated apoptosis of WEHI-231 OE cells after C2-ceramide pre-treatment; assay type: cell-based, murine; details: C2-ceramide 30 minutes prior to 8 Gy, 24 hours
Protocol: FIG. 11A-1, FIG. 11A-2, and FIG. 11A-3. Exogenous ceramide can sensitize WEHI-231 OE cells to radiation mediated apoptosis. C2-ceramide (Cer) was added to 3×10^5 WEHI-231 OE cells 30 minutes prior to treatment with 8 Gy. Apoptosis was quantitated using propidium iodide staining and FACS analysis. Percent apoptotic cells are shown in gate R2 twenty-four hours following irradiation.
(§1) For viability staining, 2.5-3.5×10^5 cells were treated with varying concentrations of C2-ceramide, irradiation, or both.
(§2) In order to address the question of whether the resistance of the OE subline was due, in part, to alterations in ceramide metabolites or targets, three studies were performed. […] Both cell lines were equally susceptible to the effects of sphingosine kinase inhibition and the resulting […] in ceramide. […] Thus the radioresistance can be attributed to the lack of sphingomyelinase activation and the subsequent decreased ceramide production following irradiation.

[3] = system: WEHI-231 OE cells; experiment: Viability by PI staining and FACS, WEHI-231 OE; assay type: cell-based, murine; details: 24 hours
Protocol: (§3) FIG. 11B. WEHI-231 JM and OE cells are equally sensitive to inhibition of sphingosine kinase and exogenous ceramide. Cells were treated with increasing concentrations of C2-ceramide or DL-threo-dihydrosphingosine--apotent inhibitor of sphingosine kinase. Viability was assayed using PI staining and FACS analysis 24 hours after treatment.
as §1, §2

[4] = system: WEHI-231 JM cells; experiment: Viability by PI staining and FACS, WEHI-231 JM; assay type: cell-based, murine; details: 24 hours
Protocol: as §3, §1, §2

[5] = system: WEHI-231 cells; experiment: Reactive oxygen species by dichlorodihydrofluorescein and FACS; assay type: cell-based, murine; details: 30 μM ceramide or 10 μM chelerythrine, 15 minutes; anti-IgM 2 hours
Protocol: FIGS. 8A-8C. Exogenous ceramide and PKC inhibition induce oxidative changes in WEHI-231 cells. WEHI-231 cells (1×10^6) were treated with anti-IgM antibodies for 2 hours (FIG. 8A), 30 μM exogenous ceramide for 15 minutes (FIG. 8B) or 10 μM chelerythrine for 15 minutes (FIG. 8C). The reactive oxygen species in the cells was then measured using dichlorodihydrofluorescein (DCHF-DA) and quantitated using FACS analysis. Histogram analysis of fluorescence is plotted as LOG function.
The mechanisms by which ceramide may mediate cell death is yet unknown. […] Since changes in oxidative status induced a wide range of cellular responses including growth and apoptosis in WEHI-231 and other lymphocytes, the inhibition of PKC and a resulting accumulation of ceramide were studied for their affect on the level of reactive oxygen species within the cell using the dye dichlorodihydrofluorescein and FACS analysis. […] While non-toxic oxidation may promote cell growth, intracellular reduction may lead to the activation of cysteine proteases which are proposed mediators of apoptosis.

[6] = system: SQ20-B cells; experiment: Apoptosis in SQ20-B (propidium iodide FACS, DAPI staining, DNA laddering); assay type: cell-based, human
Protocol: FIGS. 3A-3E. […] M1 defines the % of apoptotic cells as defined by (a) propidium iodide uptake of 1 log or more fluorescence and (b) a decrease in cell size of 50% or more. FL3-Height indicated the uptake of propidium by the cell. In FIG. 3A, M1=5%; FIG. 3B, M1=22%; FIG. 3C, M1=73%; FIG. 3D, M1=16%; FIG. 3E, M1=24%.
Cells undergoing apoptosis also shrink in size.
Cells, 5×10^5, were centrifuged at 1000 rpm and resuspended in approximately 100 μl cell culture media. The cell suspension was then mixed with 100 μl of DAPI (4',6-iamidino-2-phenylindole, Sigma D9542, 1 μg/ml in PBT (PBS+1% Triton X-100)). One drop of this mixture was placed on a microslide with a coverslip. The cells were viewed by fluorescence microscopy using an Olympus BX-40 microscope with a 100 Watt Mercury lamp, a 16 or 40 X Fluorite objective, N.A. 0.75, (Leco #1-UB527) and a UV filter cube (ex 330-385 nm, em 420 nm, wide band pass, Leco #U-M536). Images were photographed using an Optronics cooled low-light video camera (Leco #DEI-470TB) to which was attached a 2X coupler (Leco #HR200-CMT). The image was saved to a digital file at 72 dpi.
DNA degradation was assessed as previously described (Gottschalk et al., 1993; 1994). Briefly, following treatment in 100 mm plates or 24 well plates, cells were collected and lysed in 0.5 ml lysis buffer (0.6% SDS+10 mM EDTA, pH 7.0). […]

[7] = system: bcl-x WEHI-231, MG and WEHI-231 OE (JM) cells; experiment: Effect of protease inhibitors on chelerythrine induced apoptosis in apoptosis-resistant cell lines; assay type: cell-based; details: ZVAD 20 μM, even at doses >15 μM chelerythrine
Protocol: Using the procedures already described (Chmura, 1996; Chmura et al., 1996a; Chmura et al., 1996b), three different apoptosis-resistant cell lines were examined for their susceptibility to apoptosis induced by chelerythrine. The three cell lines used were bcl-x WEHI-231, which represents WEHI-231 cells that have been transfected with bcl-x and are highly resistant to radiation induce apoptosis, MG cells and the WEHI-231 OE (JM) cells previously described.
All three cell lines were treated with chelerythrine and x-irradiation as previously described (Chmura et al., 1996a; Chmura et al., 1996b) with the following modifications. Cells were pre-exposed to YVAD-cmk (100 μM), a protease inhibitor of the interleukin 1-b converting enzyme (ICE) subfamily or to ZVAD (20 μM), which inhibits the cpp32β family of proteases, for 30 minutes before being subjected to chelerythrine.

Compound	clonogenic survival of irradiated cultures (words) ([1]; listed as C2-Ceramide)	clonogenic survival of irradiated cultures (words) ([1]; listed as ceramide)	apoptotic response of irradiated cells [2]	pIC50 [3]	pIC50 [4]	reactive oxygen species (ROS) [5]	apoptosis following combined IR and chelerythrine (2.5 μM), inhibition ([6]; zVAD-fmk 20 μM)	chelerythrine induced apoptosis, inhibition ([6]; zVAD-fmk with chelerythrine)	inhibition of chelerythrine induced apoptosis [7]
CCCCCCCCCCCCC/C=C/[C@@H](O)[C@H](CO)NC(C)=O [C2-ceramide]	decreased clonogenic survival	enhanced IR induced cell killing	restored the apoptotic response at 24 hours	5.52	5.52	reduced the ROS in the cells			
zVAD-fmk							inhibited apoptosis	blocked chelerythrine induced apoptosis	did block chelerythrine induced apoptosis
